*1 amine or outer side, *2 acyl side, *3 side chain or, on linkers, in order; H or OH if unused. Where a SMILES comes first, the peptide text is derived from it. Side-chain parts run from the residue outwards. [ ]: non-standard residue; d: D form. The star is where a group is joined. C20 diacid = O=C(O)CCCCCCCCCCCCCCCCCCC(=O)*; γGlu = O=C(O)[C@H](CCC(=O)[*:2])N[*:1]; 4Pal = N[C@@H](Cc1ccncc1)C(=O)O; αMeL = CC(C)C[C@](C)(N)C(=O)O; AEEA = NCCOCCOCC(=O)O; Aib = CC(C)(N)C(=O)O
Legend:
[1] = molecular target: T1, human glucose-dependent insulinotropic peptide receptor (GIPR) (Homo sapiens, UniProt P48546); experiment: cAMP functional assay (HTRF) in HEK293 cells in presence of 0.1% casein; format: cell-based; conditions: HEK293 cells expressing human GIPR, geometric mean, read-out: hGIPR cAMP Rel EC50 nM (SEM, n)
T1 construct: expressed in transfected cells; host or cells: HEK293
T1 sequence (P48546 22-466): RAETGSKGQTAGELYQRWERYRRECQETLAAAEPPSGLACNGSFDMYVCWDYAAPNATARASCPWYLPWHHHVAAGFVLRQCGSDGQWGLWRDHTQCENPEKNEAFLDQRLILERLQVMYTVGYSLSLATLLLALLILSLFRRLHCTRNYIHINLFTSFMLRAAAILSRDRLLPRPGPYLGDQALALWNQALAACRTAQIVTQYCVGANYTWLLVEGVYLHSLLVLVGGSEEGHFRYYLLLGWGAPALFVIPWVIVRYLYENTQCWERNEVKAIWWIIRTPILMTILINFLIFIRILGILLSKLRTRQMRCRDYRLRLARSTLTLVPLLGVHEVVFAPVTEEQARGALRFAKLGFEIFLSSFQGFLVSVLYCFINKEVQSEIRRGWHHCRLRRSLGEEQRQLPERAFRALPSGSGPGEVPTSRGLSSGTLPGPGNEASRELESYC

[2] = molecular target: T2, human glucagon receptor (GcgR) (Homo sapiens, UniProt P47871); experiment: as above; format: cell-based; conditions: HEK293 cells expressing human GcgR, geometric mean, read-out: hGcgR cAMP Rel EC50 nM (SEM, n)
T2 construct: expressed in transfected cells; host or cells: HEK293
T2 sequence (P47871 26-477): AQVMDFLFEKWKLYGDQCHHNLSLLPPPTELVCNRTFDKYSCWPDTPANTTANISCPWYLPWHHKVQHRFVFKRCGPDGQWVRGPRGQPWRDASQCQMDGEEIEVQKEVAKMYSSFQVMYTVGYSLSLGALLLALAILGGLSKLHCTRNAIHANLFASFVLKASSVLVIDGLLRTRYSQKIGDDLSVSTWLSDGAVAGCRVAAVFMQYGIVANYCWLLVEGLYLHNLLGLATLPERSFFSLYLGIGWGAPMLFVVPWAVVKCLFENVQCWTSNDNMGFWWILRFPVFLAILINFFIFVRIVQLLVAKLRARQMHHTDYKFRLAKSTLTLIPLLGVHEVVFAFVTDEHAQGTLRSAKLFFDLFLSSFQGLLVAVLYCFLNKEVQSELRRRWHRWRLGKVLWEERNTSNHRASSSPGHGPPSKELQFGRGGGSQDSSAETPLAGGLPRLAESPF

## CC[C@H](C)[C@H](NC(=O)[C@H](Cc1ccccc1)NC(=O)[C@@H](NC(=O)CNC(=O)[C@H](CCC(=O)O)NC(=O)C(C)(C)NC(=O)[C@@H](N)Cc1ccc(O)cc1)[C@@H](C)O)C(=O)N[C@@H](CO)C(=O)N[C@@H](CC(=O)O)C(=O)N[C@@H](Cc1ccc(O)cc1)C(=O)N[C@@H](CO)C(=O)N[C@H](C(=O)N[C@@](C)(CC(C)C)C(=O)N[C@@H](CC(C)C)C(=O)N[C@@H](CC(=O)O)C(=O)N[C@@H](CCCCN)C(=O)N[C@@H](CCCCNC(=O)COCCOCCNC(=O)COCCOCCNC(=O)CC[C@H](NC(=O)CCCCCCCCCCCCCCCCCCC(=O)O)C(=O)O)C(=O)N[C@@H](Cc1c[nH]cn1)C(=O)N[C@@H](CCC(N)=O)C(=O)NC(C)(C)C(=O)N[C@@H](CCC(=O)O)C(=O)N[C@@H](Cc1ccccc1)C(=O)N[C@H](C(=O)N[C@@H](CCC(=O)O)C(=O)N[C@@H](Cc1ccc(O)cc1)C(=O)N[C@@H](CC(C)C)C(=O)N[C@@H](CC(C)C)C(=O)N[C@@H](CCC(=O)O)C(=O)N[C@H](C(=O)NCC(=O)N1CCC[C@H]1C(=O)N[C@@H](CO)C(=O)N[C@@H](CO)C(=O)NCC(=O)N[C@@H](C)C(=O)N1CCC[C@H]1C(=O)N1CCC[C@H]1C(=O)N1CCC[C@H]1C(=O)N[C@@H](CO)C(N)=O)[C@@H](C)O)C(C)C)[C@@H](C)CC [Example 64] (H-Y[Aib]EGTFISDYSI[αMeL]LDKK([AEEA-AEEA-γGlu-C20 diacid])HQ[Aib]EFVEYLLETGPSSGAPPPS-NH2)
[1]
  EC50: 0.0448 nM
[2]
  EC50: 3070 nM

## CC[C@H](C)[C@H](NC(=O)[C@H](Cc1ccccc1)NC(=O)[C@@H](NC(=O)CNC(=O)[C@H](CCC(=O)O)NC(=O)C(C)(C)NC(=O)[C@@H](N)Cc1ccc(O)cc1)[C@@H](C)O)C(=O)N[C@@H](CO)C(=O)N[C@@H](CC(=O)O)C(=O)N[C@@H](Cc1ccc(O)cc1)C(=O)N[C@@H](CO)C(=O)N[C@H](C(=O)N[C@@](C)(CC(C)C)C(=O)N[C@@H](CC(C)C)C(=O)N[C@@H](CC(=O)O)C(=O)N[C@@H](CCCCN)C(=O)N[C@@H](CCCCNC(=O)COCCOCCNC(=O)COCCOCCNC(=O)CC[C@H](NC(=O)CCCCCCCCCCCCCCCCCCC(=O)O)C(=O)O)C(=O)N[C@@H](Cc1c[nH]cn1)C(=O)N[C@@H](CCC(N)=O)C(=O)NC(C)(C)C(=O)N[C@@H](CCC(=O)O)C(=O)N[C@@H](Cc1ccccc1)C(=O)N[C@H](C(=O)N[C@@H](CCC(=O)O)C(=O)N[C@@H](Cc1ccc(O)cc1)C(=O)N[C@@H](CC(C)C)C(=O)N[C@@H](CC(C)C)C(=O)N[C@@H](CCC(=O)O)C(=O)N[C@@H](C)C(=O)NCC(=O)N1CCC[C@H]1C(=O)N[C@@H](CO)C(=O)N[C@@H](CO)C(=O)NCC(=O)N[C@@H](C)C(=O)N1CCC[C@H]1C(=O)N1CCC[C@H]1C(=O)N1CCC[C@H]1C(=O)N[C@@H](CO)C(N)=O)C(C)C)[C@@H](C)CC [Example 65] (H-Y[Aib]EGTFISDYSI[αMeL]LDKK([AEEA-AEEA-γGlu-C20 diacid])HQ[Aib]EFVEYLLEAGPSSGAPPPS-NH2)
[1]
  EC50: 0.0346 nM
[2]
  EC50: 850 nM

## CC[C@H](C)[C@H](NC(=O)[C@H](Cc1ccccc1)NC(=O)[C@@H](NC(=O)CNC(=O)[C@H](CCC(=O)O)NC(=O)C(C)(C)NC(=O)[C@@H](N)Cc1ccc(O)cc1)[C@@H](C)O)C(=O)N[C@@H](CO)C(=O)N[C@@H](CC(=O)O)C(=O)N[C@@H](Cc1ccc(O)cc1)C(=O)N[C@@H](CO)C(=O)N[C@H](C(=O)N[C@@](C)(CC(C)C)C(=O)N[C@@H](CC(C)C)C(=O)N[C@@H](CC(=O)O)C(=O)N[C@@H](CCCCN)C(=O)N[C@@H](CCCCNC(=O)COCCOCCNC(=O)COCCOCCNC(=O)CC[C@H](NC(=O)CCCCCCCCCCCCCCCCCCC(=O)O)C(=O)O)C(=O)N[C@@H](Cc1c[nH]cn1)C(=O)N[C@@H](CCC(N)=O)C(=O)NC(C)(C)C(=O)N[C@@H](CC(=O)O)C(=O)N[C@@H](Cc1ccccc1)C(=O)N[C@H](C(=O)N[C@@H](CCC(=O)O)C(=O)N[C@@H](Cc1ccc(O)cc1)C(=O)N[C@@H](CC(C)C)C(=O)N[C@@H](CC(C)C)C(=O)N[C@@H](CCC(=O)O)C(=O)N[C@H](C(=O)NCC(=O)N1CCC[C@H]1C(=O)N[C@@H](CO)C(=O)N[C@@H](CO)C(=O)NCC(=O)N[C@@H](C)C(=O)N1CCC[C@H]1C(=O)N1CCC[C@H]1C(=O)N1CCC[C@H]1C(=O)N[C@@H](CO)C(N)=O)[C@@H](C)O)C(C)C)[C@@H](C)CC [Example 66] (H-Y[Aib]EGTFISDYSI[αMeL]LDKK([AEEA-AEEA-γGlu-C20 diacid])HQ[Aib]DFVEYLLETGPSSGAPPPS-NH2)
[1]
  EC50: 0.0786 nM
[2]
  EC50: > 5000 nM

## CC[C@H](C)[C@H](NC(=O)[C@H](Cc1ccccc1)NC(=O)[C@@H](NC(=O)CNC(=O)[C@H](CCC(=O)O)NC(=O)C(C)(C)NC(=O)[C@@H](N)Cc1ccc(O)cc1)[C@@H](C)O)C(=O)N[C@@H](CO)C(=O)N[C@@H](CC(=O)O)C(=O)N[C@@H](Cc1ccc(O)cc1)C(=O)N[C@@H](CO)C(=O)N[C@H](C(=O)N[C@@](C)(CC(C)C)C(=O)N[C@@H](CC(C)C)C(=O)N[C@@H](CC(=O)O)C(=O)N[C@@H](CCCCN)C(=O)N[C@@H](CCCCNC(=O)COCCOCCNC(=O)COCCOCCNC(=O)CC[C@H](NC(=O)CCCCCCCCCCCCCCCCCCC(=O)O)C(=O)O)C(=O)N[C@@H](Cc1c[nH]cn1)C(=O)N[C@@H](CCC(N)=O)C(=O)NC(C)(C)C(=O)N[C@@H](CC(=O)O)C(=O)N[C@@H](Cc1ccccc1)C(=O)N[C@H](C(=O)N[C@@H](CCC(=O)O)C(=O)N[C@@H](Cc1ccc(O)cc1)C(=O)N[C@@H](CC(C)C)C(=O)N[C@@H](CC(C)C)C(=O)N[C@@H](CCC(=O)O)C(=O)N[C@@H](C)C(=O)NCC(=O)N1CCC[C@H]1C(=O)N[C@@H](CO)C(=O)N[C@@H](CO)C(=O)NCC(=O)N[C@@H](C)C(=O)N1CCC[C@H]1C(=O)N1CCC[C@H]1C(=O)N1CCC[C@H]1C(=O)N[C@@H](CO)C(N)=O)C(C)C)[C@@H](C)CC [Example 68] (H-Y[Aib]EGTFISDYSI[αMeL]LDKK([AEEA-AEEA-γGlu-C20 diacid])HQ[Aib]DFVEYLLEAGPSSGAPPPS-NH2)
[1]
  EC50: 0.0768 nM
[2]
  EC50: 3030 nM

## CC[C@H](C)[C@H](NC(=O)[C@H](Cc1ccccc1)NC(=O)[C@@H](NC(=O)CNC(=O)[C@H](CCC(=O)O)NC(=O)C(C)(C)NC(=O)[C@@H](N)Cc1ccc(O)cc1)[C@@H](C)O)C(=O)N[C@@H](CO)C(=O)N[C@@H](CC(=O)O)C(=O)N[C@@H](Cc1ccc(O)cc1)C(=O)N[C@@H](CO)C(=O)N[C@H](C(=O)N[C@@](C)(CC(C)C)C(=O)N[C@@H](CC(C)C)C(=O)N[C@@H](CC(=O)O)C(=O)N[C@@H](CCCCN)C(=O)N[C@@H](CCCCNC(=O)COCCOCCNC(=O)COCCOCCNC(=O)CC[C@H](NC(=O)CCCCCCCCCCCCCCCCCCC(=O)O)C(=O)O)C(=O)N[C@@H](Cc1c[nH]cn1)C(=O)N[C@@H](CCC(N)=O)C(=O)NC(C)(C)C(=O)N[C@@H](CC(=O)O)C(=O)N[C@@H](Cc1ccccc1)C(=O)N[C@H](C(=O)N[C@@H](CCC(=O)O)C(=O)N[C@@H](Cc1ccc(O)cc1)C(=O)N[C@@H](CC(C)C)C(=O)N[C@@H](CC(C)C)C(=O)N[C@@H](CCC(=O)O)C(=O)NCC(=O)NCC(=O)N1CCC[C@H]1C(=O)N[C@@H](CO)C(=O)N[C@@H](CO)C(=O)NCC(=O)N[C@@H](C)C(=O)N1CCC[C@H]1C(=O)N1CCC[C@H]1C(=O)N1CCC[C@H]1C(=O)N[C@@H](CO)C(N)=O)C(C)C)[C@@H](C)CC [Example 69] (H-Y[Aib]EGTFISDYSI[αMeL]LDKK([AEEA-AEEA-γGlu-C20 diacid])HQ[Aib]DFVEYLLEGGPSSGAPPPS-NH2)
[1]
  EC50: 0.0302 nM
[2]
  EC50: 803 nM

## CC[C@H](C)[C@H](NC(=O)[C@H](Cc1ccccc1)NC(=O)[C@@H](NC(=O)CNC(=O)[C@H](CCC(=O)O)NC(=O)C(C)(C)NC(=O)[C@@H](N)Cc1ccc(O)cc1)[C@@H](C)O)C(=O)N[C@@H](CO)C(=O)N[C@@H](CC(=O)O)C(=O)N[C@@H](Cc1ccc(O)cc1)C(=O)N[C@@H](CO)C(=O)N[C@H](C(=O)N[C@@](C)(CC(C)C)C(=O)N[C@@H](CC(C)C)C(=O)N[C@@H](CC(=O)O)C(=O)N[C@@H](CCCCN)C(=O)N[C@@H](CCCCNC(=O)COCCOCCNC(=O)COCCOCCNC(=O)CC[C@H](NC(=O)CCCCCCCCCCCCCCCCCCC(=O)O)C(=O)O)C(=O)N[C@@H](Cc1c[nH]cn1)C(=O)N[C@@H](CCC(N)=O)C(=O)NC(C)(C)C(=O)N[C@@H](CC(=O)O)C(=O)N[C@@H](Cc1ccccc1)C(=O)N[C@H](C(=O)N[C@@H](CCC(=O)O)C(=O)N[C@@H](Cc1ccncc1)C(=O)N[C@@H](CC(C)C)C(=O)N[C@@H](CC(C)C)C(=O)N[C@@H](C)C(=O)N[C@H](C(=O)NCC(=O)N1CCC[C@H]1C(=O)N[C@@H](CO)C(=O)N[C@@H](CO)C(=O)NCC(=O)N[C@@H](C)C(=O)N1CCC[C@H]1C(=O)N1CCC[C@H]1C(=O)N1CCC[C@H]1C(=O)N[C@@H](CO)C(N)=O)[C@@H](C)O)C(C)C)[C@@H](C)CC [Example 70] (H-Y[Aib]EGTFISDYSI[αMeL]LDKK([AEEA-AEEA-γGlu-C20 diacid])HQ[Aib]DFVE[4Pal]LLATGPSSGAPPPS-NH2)
[1]
  EC50: 0.0254 nM
[2]
  EC50: 3560 nM
